Where no end group is shown, it is not given here.
Key:
[1] = tested on: mice with ABPA (allergy to Aspergillus fumigatus); experiment: Allergic Bronchopulmonary Aspergillosis (ABPA) allergy model in mice; type: in vivo
Procedure: (§1) Evaluation of the efficacy of thymosin alpha 1 in two experimental models of allergy. A model consists of inducing an allergic state by administering chicken ovalbumin (OVA) in allergising conditions. The other consists of inducing the allergy from environmental allergens, and namely the spores of the fungus Aspergillus fumigatus.
The induction of the allergic pathology due to Aspergillus (called ABPA, Allergic Bronchopulmonary Aspergillosis) and to OVA was carried out as described in table 1 (Montagnoli C, Fallarino F, Gaziano R, Bozza S, Bellocchio S, Zelante T, Kurup W P, Pitzurra L, Puccetti P, Romani L. Immunity and tolerance to Aspergillus involve functionally distinct regulatory T cells and tryptophan catabolism. J. Immunol. 2006, 176:1712-1723). The mice received an intraperitoneal (i.p.) and subcutaneous (s.c.) injection of 5 μg of A. fumigatus culture filter (CCFA) dissolved in an incomplete Freund adjuvant (Sigma) followed by two consecutive intranasal injections (one week apart) of 20 μg CCFA. One week after the last intranasal contact, the mice received 10^7 Aspergillus conidia intratracheally (i.t.) […]. The mice received 10 μg of OVA via i.p./s.c. on day 0, followed by two consecutive intranasal injections (one week apart) of 10 μg of OVA (chicken OVA grade VI; Sigma-Aldrich) together with 1 mg of Al(OH)3 (Alum Inject; Pierce, Rockford, Ill.) as adjuvant dissolved in a sterile saline solution. The mice were analysed for inflammation and allergy parameters a week later. For the histological analysis, sections (from 3 to 4 μm) of tissues immersed in paraffin were coloured with periodical Schiff acid (PAS) to evaluate the general morphology. The lung sections coloured with PAS were examined at 50, 200 and 400 enlargements to assess the “Globet” type cells typical of the allergy.
The differential total and total lung cell counts were carried out by colouring the lung of allergic mice with May-Grünwald reagents (Giemsa Sigma) before the analysis.
(§2) The collagen levels in the lungs were determined as described (Montagnoli C, Fallarino F, Gaziano R, Bozza S, Bellocchio S, Zelante T, Kurup WP, Pitzurra L, Puccetti P, Romani L. Immunity and tolerance to Aspergillus involve functionally distinct regulatory T cells and tryptophan catabolism. J. Immunol. 2006, 176:1712-1723). The concentrations of hydroxyproline were calculated by means of a standard hydroxyproline curve (zero to 100 μg/ml).
(§3) IgE determination in the serum. Total IgE in the serum samples was determined by enzyme-linked immunosorbent assay (Montagnoli C, Fallarino F, Gaziano R, Bozza S, Bellocchio S, Zelante T, Kurup WP, Ptzurra L, Puccetti P, Romani L. Immunity and tolerance to Aspergillus involve functionally distinct regulatory T cells and tryptophan catabolism. J. Immunol. 2006, 176:1712-1723 in the serum samples was measured by enzyme-linked immunosorbent assay).
Treatment with thymosin alpha 1. Tα1 (purchased from Sigma, St. Louis, Mo., USA; product no. T3410; molecular formula C129H215N33O55) and the scrambled peptide were supplied as sterile dried powders. The powders were reconstituted in sterile water (endotoxin levels were <0.03 pg/ml, by means of standard Limulus lysate assay). Tα1 was administered at a dosage of 50 and 200 microgrammes/kg i.p. according to the design reported in tables 1 and 2, both in the ABPA model and in the allergy from OVA. Mice controls received the scrambled peptide. In selected experiments, the mice were treated for comparison with a known agent that could improve the allergic symptomatology: oligodeoxynucleotide, containing non-methylated CpG (CpG) sequences.

[2] = tested on: mice with allergy from OVA; experiment: Allergy from OVA (chicken ovalbumin) model in mice; type: in vivo; conditions: FIG. 1B
Procedure: as §1
The induction of the allergic pathology due to Aspergillus (called ABPA, Allergic Bronchopulmonary Aspergillosis) and to OVA was carried out as described in table 1 (Montagnoli C, Fallarino F, Gaziano R, Bozza S, Bellocchio S, Zelante T, Kurup W P, Pitzurra L, Puccetti P, Romani L. Immunity and tolerance to Aspergillus involve functionally distinct regulatory T cells and tryptophan catabolism. J. Immunol. 2006, 176:1712-1723). The mice received an intraperitoneal (i.p.) and subcutaneous (s.c.) injection of 5 μg of A. fumigatus culture filter (CCFA) dissolved in an incomplete Freund adjuvant (Sigma) followed by two consecutive intranasal injections (one week apart) of 20 μg CCFA. […] The mice were analysed for inflammation and allergy parameters a week later. […]
as §2
as §3, with “assay). […]” for “assay).”

[3] = FIG. 1A, Tα1 200 microgrammes i.p., both prophylaxis and therapy, vs control mice
[4] = Tα1 200 microgrammes i.p., both prophylaxis and therapy, vs control mice

thymosin alpha 1 (Ac-SDAAVDTSSEITTKDLKEKKEVVEEAEN; ends and bridges not checked; UniProt P06454 2-29, looked up) [Tα1, thymic peptide found in nature; purchased from Sigma, product no; T3410]
IgE antibodies [1, 3]: drastic reduction | local production of hydroxyproline [1, 3]: drastic reduction | reduction in allergic inflammatory parameters (hydroxyproline, IgE) at lower dosages ([1]; FIG. 1A, lower dosages (50 microgrammes/kg i.p.)): not at lower dosages | efficacy in reducing the allergic inflammation parameters, Tα1 compared with CpG ([1]; FIG. 2, both in prophylaxis and therapy): comparable efficacy | recruitment of monocytes/macrophages (pulmonary) ([1]; FIG. 3): did not have any appreciable effects | recruitment of neutrophils (pulmonary) ([1]; FIG. 3): did not have any appreciable effects | recruitment of eosinophils (pulmonary) ([1]; FIG. 3, both in prophylaxis and in therapy): drastic reduction | hyperplasia of submucose glandular (Globet) cells in pulmonary sections ([1]; FIG. 4, histology (PAS)): decreased hyperplasia | inflammatory infiltrate in pulmonary sections ([1]; FIG. 4, histology (PAS), prophylactic treatment): considerably reduced | IgE antibodies [2, 4]: drastic reduction | local production of hydroxyproline [2, 4]: drastic reduction | reduction in allergic inflammatory parameters (hydroxyproline, IgE) at lower dosages ([2]; lower dosages (50 microgrammes/kg i.p.)): not at lower dosages

From patent US20090270594A1, “USE OF THYMOSIN ALPHA 1 FOR THE PREPARATION OF A MEDICAMENT FOR THE PREVENTION AND TREATMENT OF ALLERGIES” (SIGMA-TAU INDUSTRIE FARMACEUTICHE, priority 2006, published 2009)
